Assay results taken from patent publication US20080027131A1, “USE OF BENZO-FUSED HETEROCYCLE SULFAMIDE DERIVATIVES FOR THE TREATMENT OF OBESITY” (priority 2005, published 2008).

Experiments:
AKR/J Obese Mice = AKR/J Obese Mice In Vivo Assay (Example 13)
Experimental: AKR/J mice are known in the art to be susceptible to diet-induced obesity. (Rossmeisl M, Rim J S, Koza R A, Kozak L P. Diabetes. 2003 August; 52(8):1958-66.)
Male AKR/J mice (˜20 gram) at 4-5 weeks of age (Jackson Laboratories, Bar Harbor, Me.) were housed individually in a shoe-box cage at 21° C. with a 12-h light-dark cycle. The mice were fed with a high fat diet for 8 weeks to induce obesity. The composition of the diet by energy was 45% energy as fat, 20% as protein, and 35% as carbohydrate (Research Diets, D12451, New Brunswick, N.J.).
Obese mice with body weights between 35 and 46 grams were selected for the studies. Mice were randomized according to body weight into treatment groups at 13 weeks of age. The mice were orally gavaged once daily (0.2 ml at 1500-1700 hour) with vehicle control (0.5% methylcellulose, pH7.4) or vehicle containing Compound #8 (300 mg/kg). The body weights and food intake of the mice were monitored every few days. On day 11, the mice were anaesthetized with sodium pentobarbital (1 ml/kg, i.p, Sleepaway, Fort Dodge, Iowa). White adipose tissue (WAT) (retroperitoneal fat) and skeletal muscle (gastrocnemius and soleus muscle) were dissected and weighed.
Data shown below are expressed as mean and standard error calculated using 9-10 mice per treatment group. The 2 tailed Student's t-Tests were used for statistic analysis. All animal studies complied with the guideline of the Institutional Animal Care and Use Committee.

AKR/J mice = experiment: Obesity In Vivo Assays in diet-induced obese AKR/J mice (Example 14, first study and second dose response study); settings: for Intake of high fat diet (g) Day 0-3 / Intake of high fat diet (g) Day 4-7 / Weight loss (g) Day 4 / Weight loss (g) Day 8 / Weight loss (g) Day 10 / Brown Adipose Tissue / Epididymal fat / Muscle / Retroperitoneal fat / Total intake of high fat diet (g) Day 1-10 / Weight loss (g) Day 7: mean ± SE; for Ratio (fat/muscle): total weights of inguinal fat and retroperitoneal fat/muscle weight
Source text: Compound #8 was suspended in 0.5% Methocel using a hand held homogenizer to reduce the particle size and a magnetic stir bar and stir plate to keep the particles homogeneously suspended throughout the dosing period. 0.5% Hydroxypropyl Methylcellulose (Methocel) used as vehicle/control.
Male AKR/J mice weighing between 35 to 46 grams were used for weight loss studies. AKR/J mice are susceptible to diet-induced obesity. Male AKR/J mice (average body weight of about 20 grams) at 4 to 5 weeks of age (obtained from Jackson Laboratories, Bar Harbor, Me.) were group housed, five per cage, in a shoebox cage at 21° C. with a 12 h light dark cycle. All of the mice were quarantined for a period of one week before transfer to the animal procedure room. The mice were fed a high fat diet for 8 weeks to induce obesity. The composition of the diet by energy was 45% energy as fat, 20% as protein, and 35% as carbohydrate (obtained from Research Diets, D12451, New Brunswick, N.J.). As a non-obese control, an additional group of mice that were age- and weight-matched was fed with a low fat diet (obtained from Research Diets, D12450B, New Brunswick, N.J.). Only mice that developed obesity, defined as a body weight between 35 and 46 grams, were selected for the weight loss studies. Animals were separated and single housed at least three days prior to the drug treatments to allow acclimation to the new surroundings.
The assay comprised two separate studies: In the first study, 10 mice were given vehicle control of 0.5% Methocel; 10 mice were treated with 300 mg/kg Compound #8 in vehicle; and 10 mice were dosed as positive control with 10 mg/kg sibutramine (a weight loss agent) in vehicle. In the second study, 48 mice were allocated into 4 treatment groups of 12 mice each. The four groups were then treated with 0.5% Methocel (vehicle), 10 mg/kg Compound #8, 30 mg/kg Compound #8, and 100 mg/kg Compound #8 in vehicle, respectively.
The mice were orally gavaged once daily (at 1500-1700 hour) with vehicle control (0.5% methocel, pH7.4) or vehicle containing Compound #8 for 10 days. The dosing volume was 5 mL/kg body weight (0.2 mL for 40 gram mice). Body weight and food intake of mice were monitored periodically throughout the studies. On Day 11, the mice were fasted for 4 hr during light cycle (food was removed 0600-1000 hour). A necropsy was done 18 hours after last dosing. The mice were anaesthetized with sodium pentobarbital (1 ml/kg, intraperitoneal [i.p.] injection, SleepAway, Fort Dodge, Iowa) and blood was drawn via cardiac puncture using an 1 mL syringe and collected into heparinized tubes. […] Plasma samples were obtained by centrifuging whole blood at 2000˜3000 g for 10˜20 minutes at 4° C. and stored at −20° C. for further measurement of insulin, HDL, LDL, and total cholesterol and triglyceride.
Blood glucose levels were measured with a glucometer (OneTouch UltraSmart, Lifescan, Milpitas, Calif.) after collecting two microliters of blood through tail puncture. Plasma insulin concentrations were measured by using rat/mouse insulin enzyme-linked immunosorbent assay (ELISA) kit (EZRMI-13K, LINCO Research, St. Charles, Mo.). Blood samples were diluted 1:4 in charcoal stripped mouse serum that was included in the ELISA kit. The rest of the procedure followed the manufacturers instruction. The total fluorescence was detected using an Orion 1 Microplate Luminometer (Berthold Detection Systems, Pforzheim, Germany). Plasma total cholesterol, high density lipoprotein (HDL), low density lipoprotein (LDL) and triglyceride concentrations were measured by using a Bayer ADVIA 1650 blood chemistry analyzer (Bayer HealthCare LLC, Diagnostic Division, Tarrytown, N.Y.). […]

[1] = 300 mg/kg oral, 10-day treatment
[2] = first study, 300 mg/kg oral gavage once daily
[3] = first study, 300 mg/kg, after 10 days of dosing
[4] = second study, 10 mg/kg oral once daily
[5] = second study, 30 mg/kg oral once daily
[6] = second study, 100 mg/kg oral once daily
[7] = first study, 10 mg/kg, after 10 days of dosing
[8] = first study, positive control 10 mg/kg

With `NS(=O)(=O)NC[C@H]1COc2cc(Cl)ccc2O1` [Compound #8, (2S)-(−)-N-(6-Chloro-2,3-dihydro-benzo[1,4]dioxin-2-ylmethyl)-sulfamide] the “Weight Loss” value (AKR/J Obese Mice; 300 mg/kg oral gavage once daily, 10-day treatment, mean ± standard error, 9-10 mice) was -3.3 ± 0.34 g, the “Food Intake (g) Day 4-10” value (AKR/J Obese Mice; 300 mg/kg oral gavage once daily, Day 4-10, mean ± standard error) was 16.2 ± 0.68 g and the “Retroperitoneal Fat Weight” value (AKR/J Obese Mice; 300 mg/kg oral gavage once daily, dissected day 11, mean ± standard error) was 0.47 ± 0.04 g. The “Skeletal Muscle Weight” value (AKR/J Obese Mice; 300 mg/kg oral gavage once daily, gastrocnemius and soleus, day 11, mean ± standard error) was 0.30 ± 0.01 g, the “changes in skeletal muscle mass (in words)” value (AKR/J Obese Mice; [1]) was “no significant changes” and the “decrease of fat to lean mass ratio (white adipose tissue/skeletal muscle) compared to vehicle treated mice” value (AKR/J Obese Mice; [1]) was 16.8%. The “reduction of retroperitoneal fat relative to vehicle treated mice” value (AKR/J Obese Mice; [1]) was 26.6%, the “fat to lean mass ratio (white adipose tissue/skeletal muscle)” value (AKR/J Obese Mice; 300 mg/kg oral, 10-day treatment, vehicle 8.9±0.4, p<0.05) was 7.4±0.5 and the “weight loss compared to vehicle treated mice (in words)” value (AKR/J Obese Mice; 300 mg/kg oral, after 10-day treatment) was “greater weight loss”. For the same molecule, the “food intake relative to control animals (in words)” value (AKR/J Obese Mice; 300 mg/kg oral, day 4 to day 10) was “reduction of food intake”, the gastric emptying (AKR/J Obese Mice; 300 mg/kg oral, p<0.05) was “delay gastric emptying at a statistically significant level” and the “Intake of high fat diet (g) Day 0-3” value (AKR/J mice; [2]) was 10.0 ± 0.4 g. For the same molecule, the “Intake of high fat diet (g) Day 4-7” value (AKR/J mice; [2]) was 10.6 ± 0.4 g, the “Weight loss (g) Day 4” value (AKR/J mice; [2]) was -0.3 ± 0.3 g and the “Weight loss (g) Day 8” value (AKR/J mice; [2]) was -2.5 ± 0.3 g. The “Weight loss (g) Day 10” value (AKR/J mice; [2]) was -3.3 ± 0.3 g, the “weight loss compared with vehicle treated mice (in words)” value (AKR/J mice; [3]) was “significant weight loss” and the “white adipose tissue weight compared with vehicle treatment (in words)” value (AKR/J mice; [3]) was “reduced white adipose tissue weight”. For the same molecule, the “Brown Adipose Tissue” value (AKR/J mice; [3]) was 0.22 ± 0.09 g, the “Epididymal fat” value (AKR/J mice; [3]) was 1.73 ± 0.10 g and the “Muscle” value (AKR/J mice; [3]) was 0.30 ± 0.01 g. For the same molecule, the “Retroperitoneal fat” value (AKR/J mice; [3]) was 0.47 ± 0.04 g, the “food intake compared to vehicle (in words)” value (AKR/J mice; first study, 300 mg/kg, three days after treatment) was “Significant suppression of food intake” and the “Ratio (fat/muscle)” value (AKR/J mice; first study, 300 mg/kg) was 7.42 ± 0.54. The “Total stomach content, measured at the end of the study” value (AKR/J mice; first study, 300 mg/kg, vehicle 0.16±0.02 g, p<0.05) was 0.27 ± 0.05 g, the “weight loss or food intake suppression (in words)” value (AKR/J mice; second dose response study, 10, 30, and 100 mg/kg) was “no significant (P>0.05) weight loss or food intake suppression” and the “Total intake of high fat diet (g) Day 1-10” value (shortened to “Total intake of high fat diet”) (AKR/J mice; [4]) was 28 ± 0.5 g. The “Weight loss (g) Day 4” value (AKR/J mice; [4]) was 0.1 ± 0.1 g, the “Weight loss (g) Day 7” value (AKR/J mice; [4]) was 0.2 ± 0.2 g and the “Weight loss (g) Day 10” value (AKR/J mice; [4]) was 0.3 ± 0.3 g. The “Total intake of high fat diet” value (AKR/J mice; [5]) was 28 ± 0.5 g, the “Weight loss (g) Day 4” value (AKR/J mice; [5]) was 0.1 ± 0.1 g and the “Weight loss (g) Day 7” value (AKR/J mice; [5]) was 0.0 ± 0.2 g. For the same molecule, the “Weight loss (g) Day 10” value (AKR/J mice; [5]) was -0.4 ± 0.2 g, the “Total intake of high fat diet” value (AKR/J mice; [6]) was 28 ± 0.6 g and the “Weight loss (g) Day 4” value (AKR/J mice; [6]) was 0.2 ± 0.1 g. The “Weight loss (g) Day 7” value (AKR/J mice; [6]) was 0.2 ± 0.3 g and the “Weight loss (g) Day 10” value (AKR/J mice; [6]) was 0.1 ± 0.2 g.
For `CC(C)CC(N(C)C)C1(c2ccc(Cl)cc2)CCC1` (stereo not shown) [Sibutramine, sibutramine, reference compound], the “food intake from day 0 to Day 3 (in words)” value (AKR/J mice; first study, 10 mg/kg) was “reduction of food intake”, the “weight after 3 days treatment (in words)” value (AKR/J mice; first study, 10 mg/kg) was “lost weight” and the “weight at the end of the study compared to control mice (in words)” value (AKR/J mice; first study, 10 mg/kg) was “no difference in weight”. For the same molecule, the “Brown Adipose Tissue” value (AKR/J mice; [7]) was 0.14 ± 0.01 g, the “Epididymal fat” value (AKR/J mice; [7]) was 1.76 ± 0.11 g and the “Muscle” value (AKR/J mice; [7]) was 0.31 ± 0.01 g. For the same molecule, the “Retroperitoneal fat” value (AKR/J mice; [7]) was 0.61 ± 0.07 g, the “Ratio (fat/muscle)” value (AKR/J mice; first study, 10 mg/kg) was 7.67 ± 0.59 and the “Intake of high fat diet (g) Day 0-3” value (AKR/J mice; [8]) was 6.5 ± 0.3 g. For the same molecule, the “Intake of high fat diet (g) Day 4-7” value (AKR/J mice; [8]) was 14.4 ± 0.7 g, the “Weight loss (g) Day 4” value (AKR/J mice; [8]) was -2.0 ± 0.2 g and the “Weight loss (g) Day 8” value (AKR/J mice; [8]) was -1.2 ± 0.4 g. For the same molecule, the “Weight loss (g) Day 10” value (AKR/J mice; [8]) was -1.2 ± 0.5 g.
`NS(=O)(=O)NCC1CCc2ccccc2O1` (stereo not shown) gave a melting point of 100 to 101 °C.
